Structures can show the parent of a compound that is named as a salt.
Legend:
[1] = target: T1, r-SgAChE1 (Schizaphis graminum acetylcholinesterase-1) (Schizaphis graminum, UniProt Q9BMJ1); assay: Kinetics of substrate hydrolysis; assay type: biochemical; details: for KM of r-SgAChE1 relative to SgAChE purified from the greenbug / Vmax of r-SgAChE1 relative to SgAChE purified from the greenbug: comparison with ref 13; for Km: read-out: KM (Michaelis constant); for Km / Vmax (maximum velocity) / Vmax: room temperature; for Km / Vmax: pH 7.0; for kcat × 10^−3 (turnover rate): values × 10^−3, calculated from molecular mass 64,597 Da and Vmax
T1 sequence (Q9BMJ1 98-659): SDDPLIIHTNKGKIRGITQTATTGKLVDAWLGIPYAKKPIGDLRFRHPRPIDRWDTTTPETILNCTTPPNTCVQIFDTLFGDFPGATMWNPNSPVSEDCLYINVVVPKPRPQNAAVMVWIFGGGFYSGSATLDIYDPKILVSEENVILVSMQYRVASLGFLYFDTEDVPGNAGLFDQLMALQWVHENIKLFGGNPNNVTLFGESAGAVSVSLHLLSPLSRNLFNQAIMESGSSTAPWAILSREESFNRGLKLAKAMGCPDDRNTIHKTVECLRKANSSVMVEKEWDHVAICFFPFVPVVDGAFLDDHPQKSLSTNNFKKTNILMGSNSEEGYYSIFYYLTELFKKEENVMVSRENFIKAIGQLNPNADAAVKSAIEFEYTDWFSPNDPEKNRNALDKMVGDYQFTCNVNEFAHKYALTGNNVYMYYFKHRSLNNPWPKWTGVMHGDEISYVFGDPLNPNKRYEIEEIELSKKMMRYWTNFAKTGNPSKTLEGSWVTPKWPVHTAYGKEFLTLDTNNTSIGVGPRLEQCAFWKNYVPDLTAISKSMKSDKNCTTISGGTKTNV

[2] = target: T1, r-SgAChE1 (Schizaphis graminum acetylcholinesterase-1); assay: Determination of IC50 for inhibition of purified r-SgAChE1; assay type: biochemical; details: room temperature
[3] = test system: SgAChE purified from the greenbug; details: read-out: IC50 against SgAChE; native SgAChE; cited from earlier work
[4] = target: T1, r-SgAChE1 (Schizaphis graminum acetylcholinesterase-1); assay: Inhibitory kinetic constants; assay type: biochemical; details: for k2 (unimolecular rate constant) / ki / ki (bimolecular reaction constant) / ki (bimolecular reaction constant, k2/Kd): ATC substrate, room temperature
[5] = test system: SgAChE purified from the greenbug; details: read-out: KM toward SgAChE; native SgAChE; cited from earlier work
[6] = target: T1, r-SgAChE1 (Schizaphis graminum acetylcholinesterase-1); assay type: biochemical

CC(=O)SC(C)C[N+](C)(C)C.[I-] (stereo not drawn) [AβMTC, acetyl(β-methyl)thiocholine iodide]
KM of r-SgAChE1 relative to SgAChE purified from the greenbug [1]: 1.88 fold | Vmax of r-SgAChE1 relative to SgAChE purified from the greenbug [1]: 1.6 fold | Km [1]: 114 ± 12.5 µM | Vmax (maximum velocity) [1]: 106.4 ± 3.0 U/mg | Vmax [1]: 106.4 ± 3.0 U/mg Protein | kcat × 10^−3 (turnover rate) [1]: 6.88 ± 0.20 min^−1

CCCC(=O)SCC[N+](C)(C)C.[I-] [BTC, S-butyrylthiocholine iodide]
KM of r-SgAChE1 relative to SgAChE purified from the greenbug [1]: 6.02 fold | Vmax of r-SgAChE1 relative to SgAChE purified from the greenbug [1]: 1.9 fold | Km [1]: 201 ± 21 µM | Vmax (maximum velocity) [1]: 4.4 ± 0.1 U/mg | Vmax [1]: 4.4 ± 0.1 U/mg Protein

C=CC[N+](C)(C)c1ccc(CCC(=O)CCc2ccc([N+](C)(C)CC=C)cc2)cc1 [BW284C51, 1,5-bis(4-allyldimethylammoniumphenyl)-pentan-3-one dibromide]
IC50 ([2]; 5 min incubation): 1660 ± 2 nM | IC50 [3]: 140 nM

CCOC(=O)CC(SP(=O)(OC)OC)C(=O)OCC (stereo not drawn) [Malaoxon, malaoxon]
IC50 ([2]; IC50, 5 min incubation): 61 nM | Kd [4]: 3400 ± 100 nM | k2 (unimolecular rate constant) [4]: 1.59 ± 0.02 min⁻¹ | ki [4]: 7830 ± 217 M⁻¹ s⁻¹ | k2 (unimolecular rate constant) ([4]; listed as malaoxon): 1.59 min⁻¹

CNC(=O)Oc1ccc2c(c1)[C@]1(C)CCN(C)[C@@H]1N2C.CNC(=O)Oc1ccc2c(c1)[C@]1(C)CCN(C)[C@@H]1N2C.O=S(=O)(O)O [Eserine, eserine hemisulfate]
IC50 ([2]; 5 min incubation): 199 ± 4 nM | IC50 ([2]; 5 min incubation, listed as eserine): 200 nM | IC50 [3]: 480 nM | k2 (unimolecular rate constant) [4]: 1.58 ± 0.04 min⁻¹ | ki [4]: 1670 ± 267 M⁻¹ s⁻¹ | ki (bimolecular reaction constant) [4]: 1.00 ± 0.16 × 10^5 M^−1 min^−1 | ki (bimolecular reaction constant, k2/Kd) [4]: 1.00 ± 0.16 ×10^−5 M^−1 min^−1 | ki (bimolecular reaction constant) ([4]; listed as eserine): (1.00 ± 0.16) × 10^5 M^−1 min^−1

CCC(=O)SCC[N+](C)(C)C.[I-] [PTC, propionylthio-choline iodide]
KM of r-SgAChE1 relative to SgAChE purified from the greenbug [1]: 2.20 fold | Vmax of r-SgAChE1 relative to SgAChE purified from the greenbug [1]: 2.0 fold | Km [1]: 68.9 ± 7.8 µM | Vmax (maximum velocity) [1]: 76.7 ± 1.0 U/mg | Vmax [1]: 76.7 ± 1.0 U/mg Protein | kcat × 10^−3 (turnover rate) [1]: 4.95 ± 0.07 min^−1 | Km [5]: 31.3 ± 3.7 µM

CC(=O)SCC[N+](C)(C)C.[I-] [ATC, Acetylthiocholine iodide]
ATC concentration above which enzymatic activity is inhibited ([6]; substrate inhibition): above 10 mM | KM of r-SgAChE1 relative to SgAChE purified from the greenbug [1]: 1.53 fold | Vmax of r-SgAChE1 relative to SgAChE purified from the greenbug [1]: 1.7 fold | Km [1]: 88.3 ± 9.6 µM | Vmax (maximum velocity) [1]: 133.2 ± 1.6 U/mg | Vmax [1]: 133.2 ± 1.6 U/mg Protein | kcat × 10^−3 (turnover rate) [1]: 8.60 ± 0.11 min^−1

CNC(=O)Oc1cccc2ccccc12 [Carbaryl, carbaryl]
IC50 ([2]; IC50, 5 min incubation): 940 ± 5 nM | Kd [4]: 15600 ± 2900 nM | k2 (unimolecular rate constant) [4]: 0.99 ± 0.01 min⁻¹ | ki [4]: 1080 ± 67 M⁻¹ s⁻¹

CCN(CC)C(C)CN1c2ccccc2Sc2ccccc21 (stereo not drawn) [Ethopropazine, ethopropazine hydrochloride]
IC50 ([2]; IC50, 5 min incubation): 102000 nM

CCOP(=O)(OCC)Oc1ccc([N+](=O)[O-])cc1 [Paraoxon]
k2 (unimolecular rate constant) [4]: 2.76 ± 0.25 min⁻¹ | ki [4]: 15100 ± 383 M⁻¹ s⁻¹ | ki (bimolecular reaction constant, k2/Kd) [4]: 9.06 ± 0.23 ×10^−5 M^−1 min^−1 | k2 (unimolecular rate constant) ([4]; listed as paraoxon): 2.76 min⁻¹

CC(=O)O [acetate]
influence on hydrolytic activity ([6]; range from 1 μM to 100 mM): not much influenced

C[N+](C)(C)CCO [choline, choline chloride]
choline concentration above which the enzyme is inhibited [6]: higher than 20 mM
